How the values were obtained:
HepG2 = experiment: Cytotoxicity against human HepG2 cells assessed as ATP level after 72 hrs by CellTiter-Glo assay; assay type: cell-based; conditions: HepG2, 72 h
[1] = biological target: T1, Thyroid hormone receptor alpha (Homo sapiens, UniProt P10827); experiment: Inhibition of TRalpha-LBD (unknown origin) interaction to texas red-labeled SRC2-2 peptide by fluorescence polarization assay
T1 sequence (P10827 whole entry): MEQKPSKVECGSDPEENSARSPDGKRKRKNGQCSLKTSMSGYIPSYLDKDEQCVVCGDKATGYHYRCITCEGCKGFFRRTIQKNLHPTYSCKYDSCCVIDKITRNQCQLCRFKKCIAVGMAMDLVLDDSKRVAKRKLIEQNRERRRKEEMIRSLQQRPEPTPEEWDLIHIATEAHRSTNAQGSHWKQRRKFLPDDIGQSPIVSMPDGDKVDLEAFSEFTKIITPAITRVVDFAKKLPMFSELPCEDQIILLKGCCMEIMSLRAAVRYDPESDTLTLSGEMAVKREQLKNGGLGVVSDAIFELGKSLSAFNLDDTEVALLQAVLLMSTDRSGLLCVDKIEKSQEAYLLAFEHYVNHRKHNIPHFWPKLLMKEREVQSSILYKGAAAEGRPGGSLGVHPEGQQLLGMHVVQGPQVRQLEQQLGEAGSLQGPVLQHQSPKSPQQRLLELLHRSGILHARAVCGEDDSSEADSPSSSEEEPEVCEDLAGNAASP

Vitamin D3 receptor = biological target: T2, Vitamin D3 receptor (Homo sapiens, UniProt P11473); experiment: Inhibition of VDR (unknown origin) interaction to SRC2-3 peptide by fluorescence polarization assay
T2 sequence (P11473 whole entry): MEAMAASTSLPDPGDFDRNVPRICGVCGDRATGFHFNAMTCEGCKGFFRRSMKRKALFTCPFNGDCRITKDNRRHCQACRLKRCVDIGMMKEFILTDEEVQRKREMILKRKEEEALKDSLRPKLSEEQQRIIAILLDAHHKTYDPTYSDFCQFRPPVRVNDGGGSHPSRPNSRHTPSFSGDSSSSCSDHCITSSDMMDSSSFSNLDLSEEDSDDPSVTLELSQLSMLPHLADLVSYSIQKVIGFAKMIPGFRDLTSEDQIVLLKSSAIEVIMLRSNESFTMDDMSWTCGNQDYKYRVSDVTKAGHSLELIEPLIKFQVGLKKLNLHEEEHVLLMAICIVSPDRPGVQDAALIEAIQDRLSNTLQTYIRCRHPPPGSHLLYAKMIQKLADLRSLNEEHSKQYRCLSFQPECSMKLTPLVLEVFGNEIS

[2] = biological target: T3, Thyroid hormone receptor beta (Homo sapiens, UniProt P10828); experiment: Inhibition of TRbeta-LBD (unknown origin) interaction to texas red-labeled SRC2-2 peptide by fluorescence polarization assay
T3 sequence (P10828 whole entry): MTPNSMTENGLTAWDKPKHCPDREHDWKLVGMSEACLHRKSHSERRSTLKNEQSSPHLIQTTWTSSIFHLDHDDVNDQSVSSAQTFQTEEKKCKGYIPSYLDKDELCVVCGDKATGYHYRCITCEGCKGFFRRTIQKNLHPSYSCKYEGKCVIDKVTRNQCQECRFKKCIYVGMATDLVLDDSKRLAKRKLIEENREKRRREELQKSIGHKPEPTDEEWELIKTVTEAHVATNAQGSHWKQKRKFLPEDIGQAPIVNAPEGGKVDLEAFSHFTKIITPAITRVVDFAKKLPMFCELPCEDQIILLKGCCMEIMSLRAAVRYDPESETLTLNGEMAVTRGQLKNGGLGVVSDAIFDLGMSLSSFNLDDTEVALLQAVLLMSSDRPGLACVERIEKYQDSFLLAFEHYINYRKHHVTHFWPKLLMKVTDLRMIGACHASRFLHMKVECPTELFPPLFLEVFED

[3] = biological target: Thyroid hormone receptor (Homo sapiens) (UniProt P10827+P10828); experiment: Inhibition of thyroid hormone receptor-mediated PEPCK gene transcription in thyroid hormone treated human HepG2 cells by RT-PCR analysis; assay type: cell-based

Compound | IC50 [1] [µM] | IC50 (Vitamin D3 receptor) [µM] | IC50 [2] [µM] | inhibition [3] | EC50 (HepG2) [µM]
CN(Cc1cccc(F)c1)C(=O)CN(C)C(=O)c1ccc(S(C)(=O)=O)c([N+](=O)[O-])c1 | > 60 | > 60 | > 60 | – | > 27
CS(=O)(=O)c1ccc(C(=O)NCCC(=O)N2CCCc3ccccc32)cc1[N+](=O)[O-] | > 60 | > 60 | > 60 | – | 10.5
Cc1ccc(N2CCN(C(=O)C3CCN(C(=O)c4ccc(S(C)(=O)=O)c([N+](=O)[O-])c4)CC3)CC2)cc1 | > 60 | > 60 | > 60 | – | > 27
CS(=O)(=O)c1ccc(C(=O)NCCCC(=O)N2CCc3ccccc32)cc1[N+](=O)[O-] | > 60 | > 60 | > 60 | – | > 27
CN(CC(=O)N1CCN(c2ccc(C(F)(F)F)cc2)CC1)C(=O)c1ccc(S(C)(=O)=O)c([N+](=O)[O-])c1 | > 60 | > 60 | > 60 | – | 11.9
CN(Cc1cccc(F)c1)C(=O)CCNC(=O)c1ccc(S(C)(=O)=O)c([N+](=O)[O-])c1 | 29 | > 60 | > 60 | – | 11.2
CS(=O)(=O)c1ccc(C(=O)NCCCC(=O)N2Cc3ccccc3C2)cc1[N+](=O)[O-] | > 60 | > 60 | > 60 | – | > 27
CN(CC(=O)N1CCC(c2ccccc2)CC1)C(=O)c1ccc(S(C)(=O)=O)c([N+](=O)[O-])c1 | > 60 | > 60 | > 60 | – | > 27
CS(=O)(=O)c1ccc(C(=O)NCCCC(=O)N2CCN(c3ccccc3)CC2)cc1[N+](=O)[O-] | > 60 | > 60 | > 60 | – | > 27
CS(=O)(=O)c1ccc(C(=O)NCC(=O)N2CCN(c3ccccc3)CC2)cc1[N+](=O)[O-] | > 60 | > 60 | > 60 | – | > 27
CN(Cc1cccc(F)c1)C(=O)CNC(=O)c1ccc(S(C)(=O)=O)c([N+](=O)[O-])c1 | > 60 | > 60 | > 60 | – | > 27
CS(=O)(=O)c1ccc(C(=O)NCCC(=O)N2Cc3ccccc3C2)cc1[N+](=O)[O-] | > 60 | > 60 | > 60 | – | 11.2
CS(=O)(=O)c1ccc(C(=O)N2CCC(C(=O)N3CCCCC3)CC2)cc1[N+](=O)[O-] | > 60 | > 60 | > 60 | – | > 27
CC(C)N(C(=O)CNC(=O)c1ccc(S(C)(=O)=O)c([N+](=O)[O-])c1)C(C)C | > 60 | > 60 | > 60 | – | > 27

Second part, led by results:

IC50 [1] [µM] | IC50 (Vitamin D3 receptor) [µM] | IC50 [2] [µM] | inhibition [3] | Compound | EC50 (HepG2) [µM]
1.7 | > 60 | 3.6 | Dose-dependent effect | CS(=O)(=O)c1ccc(C(=O)NCC(=O)N(Cc2ccccc2)Cc2ccccc2)cc1[N+](=O)[O-] | 11.9
> 60 | > 60 | > 60 | – | CS(=O)(=O)c1ccc(C(=O)N2CCC(C(=O)N3CCN(c4ccc(F)cc4)CC3)CC2)cc1[N+](=O)[O-] | > 27
37 | > 60 | > 60 | – | CN(C(=O)CCNC(=O)c1ccc(S(C)(=O)=O)c([N+](=O)[O-])c1)c1ccccc1 | > 27
> 60 | > 60 | > 60 | – | CS(=O)(=O)c1ccc(C(=O)NCCCC(=O)N2CCCCC2)cc1[N+](=O)[O-] | > 27
> 60 | > 60 | > 60 | – | CN(Cc1cccc(F)c1)C(=O)CCCNC(=O)c1ccc(S(C)(=O)=O)c([N+](=O)[O-])c1 | > 27
> 60 | > 60 | > 60 | – | CS(=O)(=O)c1ccc(C(=O)NCC(=O)N2CCN(c3ccc(C(F)(F)F)cc3)CC2)cc1[N+](=O)[O-] | > 27
> 60 | 65 | > 60 | – | CS(=O)(=O)c1ccc(C(=O)NCCCC(=O)N2CCN(c3ccc(F)cc3)CC2)cc1[N+](=O)[O-] | > 27
> 60 | > 60 | > 60 | – | CN(CC(=O)N1CCN(c2ccccc2F)CC1)C(=O)c1ccc(S(C)(=O)=O)c([N+](=O)[O-])c1 | 10.3
> 60 | > 60 | > 60 | – | CS(=O)(=O)c1ccc(C(=O)N2CCC(C(=O)N3CCc4ccccc4C3)CC2)cc1[N+](=O)[O-] | > 27
44 | 37 | > 60 | – | CS(=O)(=O)c1ccc(C(=O)NCC(=O)N2CCC(c3ccccc3)CC2)cc1[N+](=O)[O-] | > 27
> 60 | 7 | > 60 | – | CS(=O)(=O)c1ccc(C(=O)NCCCC(=O)N2CCN(c3ccc(C(F)(F)F)cc3)CC2)cc1[N+](=O)[O-] | 13
> 60 | > 60 | > 60 | – | Cc1ccc(N2CCN(C(=O)CCNC(=O)c3ccc(S(C)(=O)=O)c([N+](=O)[O-])c3)CC2)cc1 | > 27
> 60 | > 60 | > 60 | – | CN(Cc1ccccc1F)C(=O)CCCNC(=O)c1ccc(S(C)(=O)=O)c([N+](=O)[O-])c1 | > 27
> 60 | > 60 | > 60 | – | Cc1ccc(N2CCN(C(=O)CCCNC(=O)c3ccc(S(C)(=O)=O)c([N+](=O)[O-])c3)CC2)cc1 | > 27
> 60 | > 60 | > 60 | – | CC1CCN(C(=O)C2CCN(C(=O)c3ccc(S(C)(=O)=O)c([N+](=O)[O-])c3)CC2)CC1 | > 27
> 60 | > 60 | > 60 | – | CS(=O)(=O)c1ccc(C(=O)NCCC(=O)N2CCc3ccccc3C2)cc1[N+](=O)[O-] | > 27
> 60 | > 60 | > 60 | – | CC(C)N(C(=O)C1CCN(C(=O)c2ccc(S(C)(=O)=O)c([N+](=O)[O-])c2)CC1)C(C)C | > 27
> 60 | > 60 | 20 | – | CS(=O)(=O)c1ccc(C(=O)NCC(=O)N(Cc2ccccc2)c2ccccc2)cc1[N+](=O)[O-] | > 27
> 60 | > 60 | > 60 | – | CN(Cc1ccccc1F)C(=O)C1CCN(C(=O)c2ccc(S(C)(=O)=O)c([N+](=O)[O-])c2)CC1 | > 27
> 60 | > 60 | > 60 | – | Cc1ccc(N2CCN(C(=O)CN(C)C(=O)c3ccc(S(C)(=O)=O)c([N+](=O)[O-])c3)CC2)cc1 | > 27

— ChEMBL document CHEMBL2346513, “Synthesis and evaluation of methylsulfonylnitrobenzamides (MSNBAs) as inhibitors of the thyroid hormone receptor-coactivator interaction” (Bioorg Med Chem Lett, 2013)
